Results from US9650408B2, “Therapeutic agent for hypertension” (SRI INTERNATIONAL, priority 2005, dated 2017).

Key:
[1] = system: spontaneously hypertensive rats (SHRs); assay: Blood pressure and heart rate in spontaneously hypertensive rats, tail-cuff method; assay type: in vivo, rat; conditions: 100 mg once a day for seven days; for change in heart rate: FIG. 6 (TAS-108), FIG. 7 (raloxifene)
Description: TAS-108 (100 mg) was administered to nine-week-old spontaneously hypertensive rats (SHRs) once a day for consecutive seven days. Before final administration of the test drug, and 30 minutes, one hour, two hours, and four hours after the final administration, blood pressure was measured in a state where heart rate is constant by means of an […] automatic rat/mouse blood pressure measuring apparatus (BP-97A, product of Softron) according to the tail-cuff method (J. Lab. Clin. Med. 1971; 78: 957-962). For comparison, a solvent (0.5% HPMC) or raloxifene, serving as a control drug, was administered in a dose of 100 mg once a day for consecutive seven days.
Percent increase/decrease in blood pressure after final administration of the test drug was obtained on the basis of the blood pressure as measured before final administration of the drug, and the thus-obtained values were compared with one another.

estrogen receptor (ER) = conditions: cited from earlier work
[2] = system: postmenopausal breast cancer patients; assay: Blood pressure in postmenopausal breast cancer patients given oral TAS-108; assay type: in vivo, human
Description: TAS-108 (40 mg, 80 mg, or 120 mg) was orally administered to postmenopausal breast cancer patients (age: 50 to 78) once a day after breakfast for up to eight weeks. Blood pressure was measured in a sitting position before administration on the day of initiation of administration, and two weeks, four weeks, and eight weeks after initiation of administration.

estrogen receptor α = molecular target: T1, estrogen receptor α (Homo sapiens, UniProt P03372); conditions: cited from earlier work
T1 sequence (P03372 1-595): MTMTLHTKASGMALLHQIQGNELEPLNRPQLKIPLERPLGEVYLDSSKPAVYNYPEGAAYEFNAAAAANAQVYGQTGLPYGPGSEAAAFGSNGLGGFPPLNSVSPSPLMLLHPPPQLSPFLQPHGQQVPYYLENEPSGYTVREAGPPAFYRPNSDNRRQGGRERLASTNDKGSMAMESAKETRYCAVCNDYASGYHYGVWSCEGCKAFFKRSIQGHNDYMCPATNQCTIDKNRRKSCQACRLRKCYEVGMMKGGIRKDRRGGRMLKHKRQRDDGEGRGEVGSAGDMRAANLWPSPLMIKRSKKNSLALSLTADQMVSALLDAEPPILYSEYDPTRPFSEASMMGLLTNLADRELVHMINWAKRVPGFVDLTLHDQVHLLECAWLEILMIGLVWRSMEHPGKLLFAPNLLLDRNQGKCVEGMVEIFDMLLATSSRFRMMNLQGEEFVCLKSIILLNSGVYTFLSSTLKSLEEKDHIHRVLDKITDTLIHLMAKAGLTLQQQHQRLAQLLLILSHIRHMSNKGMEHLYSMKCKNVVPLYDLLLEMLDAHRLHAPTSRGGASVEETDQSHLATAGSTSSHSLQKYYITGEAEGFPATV

[3] = system: postmenopausal hypertensive patients; conditions: 142±13 mmHg before; cited from earlier work
[4] = SHR, relative to pressure before final administration, FIG. 5
[5] = SHR, during the course of measurement, FIG. 7

CCN(CC)Cc1ccc(OCC[C@H]2CCC3C4C(CC[C@@]32C)c2ccc(O)cc2C[C@H]4C)c(OC)c1 (stereo partly drawn) [TAS-108, (7α)-21-[4-[(Diethylamino)methyl]-2-methoxyphenoxy]-7-methyl-19-norpregna-1,3,5(10)-trien-3-ol]
change in heart rate ([1]; SHR): No considerable change in heart rate
time of maximum percent decrease in blood pressure ([1]; SHR, after final administration, FIG. 5): two hours after administration
reduction of diastolic blood pressure [1, 4]: 46.9%
reduction of mean blood pressure [1, 4]: 28.6%
blood pressure ([1]; all SHRs, one to two hours after final administration): blood pressure was reduced
affinity to estrogen receptor (ER) (estrogen receptor (ER)): strong affinity
systolic or diastolic blood pressure ([2]; four hypertensive patients (systolic 140 mmHg or higher or diastolic 90 mmHg or higher), 40, 80 or 120 mg orally once a day, two to four weeks after initiation, FIGS. 1 to 3): reduced to fall within a normal pressure range
change in blood pressure ([2]; remaining 11 breast cancer patients with normal blood pressure, during the course of administration, FIG. 4): no considerable change in blood pressure
reduction of systolic blood pressure ([2]; typical hypertensive patient (FIG. 2), four weeks after initiation of administration): about 40 mmHg
systolic blood pressure after administration ([2]; typical hypertensive patient (FIG. 2), four weeks after initiation, 180 mmHg before administration): 138 mmHg
agonistic effect on estrogen receptor α (estrogen receptor α): virtually no agonistic effect
antagonistic effect on estrogen receptor α (estrogen receptor α): potent antagonistic effect

O=C(c1ccc(OCCN2CCCCC2)cc1)c1c(-c2ccc(O)cc2)sc2cc(O)ccc12 [raloxifene, reference compound]
change in heart rate ([1]; SHR): no considerable change
change in diastolic blood pressure [1, 5]: no considerable change
change in mean blood pressure [1, 5]: no considerable change
change in systolic blood pressure [1, 5]: no considerable change
systolic blood pressure after administration [3]: 139±10 mmHg
